Data set [1] can be described thus: Release of aminoglycosides from coatings on pure titanium test discs. Format: physicochemical. Particulars: for Freisetzungsrate von Gentamicin-Base (time course) / initiale Freisetzung von Gentamicin-Base: coated titanium disc, 100 µg Gentamicin-Base per cm^2, 1 ml isotonic saline, 37 °C; for Freisetzungsrate von Gentamicin-Base (time course): 21 d, sampling at 1, 2, 3, 4, 7, 14, 21 days; for Freisetzungsrate von Gentamicin-Base (time course) / Wirkstofffreisetzung von beschichteten Titanoberflächen: Fig. 1; for initiale Freisetzung von Gentamicin-Base: Fig. 1, start of release; for Wirkstofffreisetzung von beschichteten Titanoberflächen: compared with Gentamicin-Palmitat. An excerpt:
Zur Untersuchung der Freisetzung von Aminoglykosiden aus Beschichtungen werden runde Probekörper aus Reintitan (Grade 4) mit einem Durchmesser von 11 mm verwendet. Für die Beschichtungen werden folgende Aminoglycosid-Verbindungen verwendet: Gentamicin-Palmitat, Gentamicin-Dodecylphosphat und Gentamicin-Octadecylphosphonsäure.
Umsetzung von Gentamicin mit Palmitat im molaren Verhältnis 1:4. Umsetzung von Gentamicin mit Dodecylphosphat bzw. Octadecylphosphonat im molaren Verhältnis 1:3.
Lösung von Gentamicin-Palmitat, Gentamicin-Dodecylphosphat und Gentamicin-Octadecylphosphonsäure in Ethanol (Konzentration 15-25 mg/ml). Auf die Oberfläche wurden unter sterilen Bedingungen 100 µg Gentamicin-Base pro cm^2 aufgetragen. Trocknen der Beschichtung (4 h bei Raumtemperatur).
Inkubation der beschichteten Probekörper in 1 ml isotonischer Kochsalzlösung über eine Zeitdauer von 21 d bei 37 °C. Zu festgelegten Zeitpunkten (1, 2, 3, 4, 7, 14 und 21 Tagen) werden die Überstände abgenommen und die Probekörper in neuer isotonischer Kochsalzlösung weiter inkubiert.
Der Gehalt an Gentamicin wurde im Hemmhoftest mit Bacillus subtilis (ATCC 6633) bestimmt.
Die gemittelte Menge der freigesetzten Gentamicin-Base aus diesen Gentamicin-Salzen ist in Fig. 1 dargestellt.

Another data set concerns MC 3T3-E1-Zellen. Type of data set: cell-based, Maus. The protocol: Für die Untersuchungen der Cytokompatibilität der aminoglykosidhaltigen Beschichtungen werden runde, sandgestrahlte Probekörper aus Reintitan mit einem Durchmesser von 11 mm mit Gentamicin-Palmitat, Gentamicin-Dodecylphosphat bzw. Gentamicin-Octadecylphosphonsäure mit einem Gehalt von 100 µg Gentamicn-Base pro cm^2, wie in Beispiel 30 beschrieben, beschichtet.
Die Probekörper werden nach dem Trocknen der Beschichtung in Mikrotiterplatten überführt und mit einer definierten Anzahl von MC 3T3-E1-Zellen (Maus-Präosteoblasten-Zelllinie, 25.000 Zellen/ml) besiedelt.
Nach einer Inkubationszeit von 4 Tagen erfolgt die Vitalfärbung mit einer Mischung aus Fluoresceindiacetat (FDA) und GelRed®.
Fig. 2 zeigt die Vitalitätsbestimmung der Zellen mittels Auflicht-Fluoreszenzmikroskopie: Gentamicin-Palmitat (A), Gentamicin-Dodecylphosphat (B), Gentamicin-Octadecylphosphat (C).

Take Gentamicin-Octadecylphosphonsäure: in data set [1], the “Freisetzungsrate von Gentamicin-Base (time course)” value is given as “bleibt von Tag 2 bis Tag 14 konstant”, the “initiale Freisetzung von Gentamicin-Base” value was “niedrigste initiale Freisetzung von Gentamicin-Base” and the “Wirkstofffreisetzung von beschichteten Titanoberflächen” value is recorded as “retardierende Wirkstofffreisetzung”.

For Gentamicin-Dodecylphosphat, in data set [1], the “Freisetzungsrate von Gentamicin-Base (time course)” value is “bleibt bis Tag 7 konstant und fällt dann nur schwach ab”, the “initiale Freisetzung von Gentamicin-Base” value is “niedrigere Freisetzungsrate von Gentamicin-Base als das Gentamicin-Palmitat” and the “Wirkstofffreisetzung von beschichteten Titanoberflächen” value is “retardierende Wirkstofffreisetzung”. Moreover, the Zytotoxizität entry in the data set with MC 3T3-E1-Zellen was “signifikant geringere Zytotoxizität”.

With “Gentamicin-Palmitat [reference compound]”, in data set [1], the “Freisetzungsrate von Gentamicin-Base (time course)” value is “bis zum vierten Freisetzungstag stark abnimmt” and the “initiale Freisetzung von Gentamicin-Base” value is “initial hohen Freisetzung der Gentamicin-Base (Burst release)”. In addition, the Zellzahlen result in the data set on MC 3T3-E1-Zellen is “niedrigsten Zellzahlen”.
